Experimental data published in ChEMBL document CHEMBL1201862, “PubChem BioAssay data set” (2004).
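The compound was tested at five concentrations on cells cultured in 96-well plates, with a 48-hour exposure period. At the GI50, growth is halved.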 The source made the active and inactive calls. Cut-off read from the data, not from the text of the source: active = GI50 up to about 1.1 µM and inactive = higher.

Tests used:
Assay in all cases: NCI-60 cell line screen, 48 h
SNB-19 = system: SNB-19
RPMI-8226 = system: RPMI-8226
HCT-15 = system: HCT-15
KM12 = system: KM12
COLO 205 = system: COLO 205
HOP-62 = system: HOP-62
OVCAR-5 = system: OVCAR-5
SK-MEL-2 = system: SK-MEL-2
NCI-H460 = system: NCI-H460
U-251 = system: U-251
LOX IMVI = system: LOX IMVI
ACHN = system: ACHN
A549 = system: A549
UACC-257 = system: UACC-257
A498 = system: A498
CAKI-1 = system: CAKI-1
IGROV-1 = system: IGROV-1
NCI-H23 = system: NCI-H23
SK-MEL-5 = system: SK-MEL-5
SK-OV-3 = system: SK-OV-3

Row | Structure (SMILES) | GI50 (SNB-19) | GI50 (RPMI-8226) | GI50 (HCT-15) [µM] | GI50 (KM12) | GI50 (COLO 205) | GI50 (HOP-62) | GI50 (OVCAR-5) | GI50 (SK-MEL-2) | GI50 (NCI-H460) | GI50 (U-251) | GI50 (LOX IMVI) | GI50 (ACHN) | GI50 (A549) | GI50 (UACC-257) | GI50 (A498) | GI50 (CAKI-1) | GI50 (IGROV-1) | GI50 (NCI-H23) | GI50 (SK-MEL-5) | GI50 (SK-OV-3)
1 | CC(C)C[C@@H](NC(=O)[C@@H](Cc1cccc2ccccc12)NC(=O)N1CCOCC1)B(O)O | > 100 µM (inactive) | 32.5 µM (inactive) | > 100 | > 100 µM (inactive) | 48.4 µM (inactive) | > 100 µM (inactive) | 75.3 µM (inactive) | 37 µM (inactive) | > 100 µM (inactive) | > 100 µM (inactive) | 54.6 µM (inactive) | 66.1 µM (inactive) | > 100 µM (inactive) | > 100 µM (inactive) | 31 µM (inactive) | 72.8 µM (inactive) | > 100 µM (inactive) | 51.2 µM (inactive) |  | 
2 | CN(C)CCCNC(=O)N/N=C/c1ccccn1 |  | > 10 µM (inactive) | > 10 | > 10 µM (inactive) | > 10 µM (inactive) | > 10 µM (inactive) | > 10 µM (inactive) |  | > 10 µM (inactive) |  | > 10 µM (inactive) | > 10 µM (inactive) | > 10 µM (inactive) | 9.42 µM (inactive) | > 10 µM (inactive) |  | > 10 µM (inactive) |  | > 10 µM (inactive) | > 10 µM (inactive)
3 | O=C1C=C(Br)c2c(Br)sc(Br)c21 | 17.7 µM (inactive) | 2.99 µM (inactive) | 5.61 | 17 µM (inactive) | 4.83 µM (inactive) | 24.9 µM (inactive) | 19.1 µM (inactive) | 20.7 µM (inactive) | 19.6 µM (inactive) | 13.9 µM (inactive) | 2.37 µM (inactive) | 4.62 µM (inactive) | 24.5 µM (inactive) | 1.89 µM (inactive) |  | 12 µM (inactive) | 5.35 µM (inactive) | 10.6 µM (inactive) | 16.3 µM (inactive) | 21.4 µM (inactive)
4 | O=C(CCC1C(=O)NC(=S)NC1=O)c1ccc2ccccc2c1 | > 100 µM (inactive) |  | > 100 | > 100 µM (inactive) | > 100 µM (inactive) | > 100 µM (inactive) | > 100 µM (inactive) | > 100 µM (inactive) | > 100 µM (inactive) | > 100 µM (inactive) | > 100 µM (inactive) | > 100 µM (inactive) | > 100 µM (inactive) | > 100 µM (inactive) | > 100 µM (inactive) | > 100 µM (inactive) | > 100 µM (inactive) | > 100 µM (inactive) | > 100 µM (inactive) | > 100 µM (inactive)
5 | COC1CCC(O)C(CO)O1 (configuration not stated) |  |  | > 100 | > 100 µM (inactive) |  | > 100 µM (inactive) | > 100 µM (inactive) | > 100 µM (inactive) | > 100 µM (inactive) | > 10 µM (inactive) | 23.3 µM (inactive) | > 100 µM (inactive) | > 100 µM (inactive) | 37.4 µM (inactive) |  |  | 22.7 µM (inactive) | > 100 µM (inactive) | > 100 µM (inactive) | > 100 µM (inactive)
6 | Nc1ccc2c(c1)CN1C(=O)c3ccccc3C1=N2 [DANIQUIDONE] | 29 µM (inactive) | 74.6 µM (inactive) | 34.8 | 50.7 µM (inactive) | 23.3 µM (inactive) | 9.71 µM (inactive) | 64.9 µM (inactive) | > 79.8 µM (inactive) | 15.5 µM (inactive) | 27.7 µM (inactive) | 35.7 µM (inactive) | 14.7 µM (inactive) | 31 µM (inactive) | 96.6 µM (inactive) | 43.1 µM (inactive) | 41.4 µM (inactive) | 34.2 µM (inactive) | 69 µM (inactive) | 16.8 µM (inactive) | 
7 | Cc1cc(=O)n2nc(CSc3nnc(S)s3)sc2n1 | > 100 µM (inactive) | > 100 µM (inactive) | > 100 | > 100 µM (inactive) | > 100 µM (inactive) | > 100 µM (inactive) | > 100 µM (inactive) | > 100 µM (inactive) | > 100 µM (inactive) | > 100 µM (inactive) | > 100 µM (inactive) | > 100 µM (inactive) | > 100 µM (inactive) | > 100 µM (inactive) |  | > 100 µM (inactive) | > 100 µM (inactive) | > 100 µM (inactive) | > 100 µM (inactive) | > 100 µM (inactive)
8 | C[n+]1c(-c2ccc(/C=N/Nc3n[nH]c(=S)n3N/N=C/c3ccc(-c4cn5ccccc5[n+]4C)cc3)cc2)cn2ccccc21 | > 100 µM (inactive) | > 100 µM (inactive) | > 100 | > 100 µM (inactive) | > 100 µM (inactive) | > 100 µM (inactive) | > 100 µM (inactive) |  | > 100 µM (inactive) | > 100 µM (inactive) |  | > 100 µM (inactive) | > 100 µM (inactive) | > 100 µM (inactive) |  |  | > 100 µM (inactive) |  | > 100 µM (inactive) | > 100 µM (inactive)
9 | c1ccc2c(c1)SP1Sc3ccccc3P21 (configuration not stated) | > 28.2 µM (inactive) | 59.6 µM (inactive) | > 100 | > 100 µM (inactive) | > 100 µM (inactive) | > 100 µM (inactive) | > 100 µM (inactive) | > 80.7 µM (inactive) | > 100 µM (inactive) | > 100 µM (inactive) | > 83.6 µM (inactive) |  | > 100 µM (inactive) | > 100 µM (inactive) | > 100 µM (inactive) |  | > 100 µM (inactive) | > 100 µM (inactive) | > 100 µM (inactive) | > 100 µM (inactive)
10 | O=c1ccc2nc3cc(Br)ccc3sc-2c1 | > 100 µM (inactive) |  | 74.1 | > 100 µM (inactive) | > 100 µM (inactive) | > 100 µM (inactive) | > 100 µM (inactive) | > 100 µM (inactive) | > 100 µM (inactive) | > 100 µM (inactive) |  | 57 µM (inactive) | > 100 µM (inactive) | > 100 µM (inactive) |  | 32.3 µM (inactive) | > 100 µM (inactive) | > 100 µM (inactive) | 62.8 µM (inactive) | > 100 µM (inactive)
11 | Cc1cc(-c2nc3cccc(O)c3s2)ccc1N | < 0.01 µM (active) | 45.2 µM (inactive) | 35 | 10.3 µM (inactive) | 24.2 µM (inactive) | 27 µM (inactive) |  | 34.7 µM (inactive) | 29.1 µM (inactive) | 41.1 µM (inactive) | 26.4 µM (inactive) | 18.2 µM (inactive) | 15.7 µM (inactive) | 37.2 µM (inactive) |  | 20.8 µM (inactive) | 22.2 µM (inactive) | 24.6 µM (inactive) | 19.3 µM (inactive) | 52.8 µM (inactive)
12 | Nc1ccc2c(c1)C(=O)N(O)C2=O | > 100 µM (inactive) |  | > 100 | > 100 µM (inactive) |  | > 100 µM (inactive) | > 100 µM (inactive) |  | > 100 µM (inactive) | > 100 µM (inactive) | > 100 µM (inactive) | > 100 µM (inactive) | > 100 µM (inactive) | > 100 µM (inactive) | > 100 µM (inactive) |  | > 100 µM (inactive) | > 100 µM (inactive) |  | > 100 µM (inactive)
13 | COc1ccc(C2CC(c3c(O)ccc4ccccc34)=NN2)cc1OC (configuration not stated) | 2.1 µM (inactive) | 8 µM (inactive) | 4.45 | 3.52 µM (inactive) | 6.12 µM (inactive) | 3.86 µM (inactive) | 3.9 µM (inactive) | 6 µM (inactive) | 2.92 µM (inactive) | 2.7 µM (inactive) |  | 1.86 µM (inactive) |  | 6.81 µM (inactive) | 18.5 µM (inactive) | 4.9 µM (inactive) | 4.43 µM (inactive) | 3.22 µM (inactive) | 2.82 µM (inactive) | 7.94 µM (inactive)
14 | CN(C)/C(=N\C#N)NCc1ccccc1 | > 100 µM (inactive) |  | > 100 | > 100 µM (inactive) | > 100 µM (inactive) | > 100 µM (inactive) |  | > 100 µM (inactive) | > 100 µM (inactive) | > 100 µM (inactive) | > 100 µM (inactive) | > 100 µM (inactive) | > 100 µM (inactive) | > 100 µM (inactive) |  | > 100 µM (inactive) | > 100 µM (inactive) | > 100 µM (inactive) | > 100 µM (inactive) | > 100 µM (inactive)
15 | CC(NNC(=O)c1cc[n+]([BH2-]C#N)cc1)c1ccccc1F (configuration not stated) | > 100 µM (inactive) | > 100 µM (inactive) | > 100 | > 100 µM (inactive) | > 100 µM (inactive) |  | > 100 µM (inactive) | > 100 µM (inactive) | > 100 µM (inactive) | > 100 µM (inactive) | > 100 µM (inactive) | > 100 µM (inactive) | > 100 µM (inactive) | > 100 µM (inactive) | 3.4 µM (inactive) | > 100 µM (inactive) | > 100 µM (inactive) |  | > 100 µM (inactive) | 
16 | O=c1[nH]c(=O)n(C2CC(O)C(O)C(CO)O2)cc1F (configuration not stated) | > 100 µM (inactive) | > 100 µM (inactive) | > 100 | > 100 µM (inactive) | > 100 µM (inactive) | > 100 µM (inactive) | > 100 µM (inactive) | > 100 µM (inactive) | > 100 µM (inactive) | > 100 µM (inactive) | > 100 µM (inactive) | > 100 µM (inactive) | > 100 µM (inactive) | > 100 µM (inactive) | > 100 µM (inactive) |  | > 100 µM (inactive) | > 100 µM (inactive) |  | > 100 µM (inactive)
